Laboratory results as given in patent US6610720B2, “Method for treating or preventing emesis” (Merck Frosst Canada & Co., priority 2000, dated 2003).
“Also recorded” adds a separate entry of the source. Like-named read-outs stand apart in the source and are kept apart here. Marks after values point to notes of the source that are not given here. Values belong to the compound of their own block, whether it stands above or below them.

How the values were obtained:
ferrets [1] = assay: Administration of alpha-2 adrenoceptor antagonists to ferrets (retching and vomiting); settings: for Retches / Vomits / Latency responders only: mean±SEM; for Emesis following administration (in words): ferrets
Description: The ferrets were housed in a humidity and temperature controlled environment with food (Marshall Premium ferret diet; Marshall Farms, North Rose, N.Y., U.S.A.) and water provided ad libitum. On the day of the experiment, ferrets were put into individual cages and left to habituate for at least 30 minutes. Fasting was not a pre-requisite of these experiments. Pre-treatment with a test compound or vehicle was performed using a subcutaneous, an intraperitoneal or an oral administration, 60 minutes prior to the emetic challenge. […] Drugs were freshly prepared on the day of the experiment. […] During that time, the number of retches (i.e. rhythmic contraction of the abdomen) and vomiting movements (i.e. oral expulsion or attempt to expel solid/liquid matter from the gastrointestinal tract) were recorded.
Data is expressed as mean±SEM.

ferrets [2] = assay: Behavioural effects observed following the administration of RS14203 in ferrets; type: in vivo, ferret (Mustela putorius furo); settings: RS14203 1 mg/kg p.o.
Description: (§1) Fasting was not a pre-requisite of these experiments.

humans = settings: cited from earlier work
ferrets [3] = settings: for Incidence / Retches / Vomits / Latency responders only: 60 min prior; for Retches / Vomits: 2 h observation
Description: The anti-emetic activity of alpha-2 adrenoceptor agonists is preferably measured using, for instance, an in vivo emesis assay in the ferret. A variety of emetic stimuli may be employed including, for example, treatment with type IV cyclic nucleotide phosphodiesterase (PDE4) inhibitors (see Robichaud et al, Neuropharmacology (1999) 38, 289-297).
as §1

ferrets [4] = settings: doses ranging from 62.5-250 μg/kg
Description: Male adult ferrets (Mustela putorius furo; 1-2 kg, Marshall Farms, North Rose, N.Y., U.S.A.) were used and experiments were conducted according to procedures previously described (Robichaud et al, 1999, supra). The ferrets were housed in a humidity and temperature controlled environment with food (Marshall Premium ferret diet; Marshall Farms, North Rose, N.Y., U.S.A.) and water provided ad libitum. On the day of the experiment, ferrets were put into individual cages and left to habituate for at least 30 minutes. Fasting was not a pre-requisite of these experiments. Pre-treatment with a test compound or vehicle was performed using a subcutaneous, an intraperitoneal or an oral administration, 60 minutes prior to the emetic challenge. Emesis was induced by PDE4 inhibitors administered orally (dosing volume=1 ml/kg) at a dose known to cause emesis (Robichaud et al, 1999, supra). Drugs were freshly prepared on the day of the experiment. […] During that time, the number of retches (i.e. rhythmic contraction of the abdomen) and vomiting movements (i.e. oral expulsion or attempt to expel solid/liquid matter from the gastrointestinal tract) were recorded.

elderly patients = elderly patients undergoing intraocular surgery; cited from earlier work
dogs = settings: i.m.; cited from earlier work
children (3-12 yr) = settings: cited from earlier work
[5] = emetic agent CT-2450 30 mg/kg p.o., pre-treatment 250 μg/kg s.c.
[6] = emetic agent R-rolipram 3 mg/kg p.o., pre-treatment 250 μg/kg s.c.
[7] = emetic agent R-rolipram 3 mg/kg p.o., pre-treatment 250 μg/kg s.c., mean ± SEM
[8] = emetic agent RS14203 1 mg/kg p.o., pre-treatment 62.5 μg/kg s.c., mean ± SEM
[9] = emetic agent RS14203 1 mg/kg p.o., pre-treatment 125 μg/kg s.c.
[10] = emetic agent RS14203 1 mg/kg p.o., pre-treatment 125 μg/kg s.c., mean ± SEM
[11] = emetic agent RS14203 1 mg/kg p.o., pre-treatment 250 μg/kg s.c.
[12] = emetic agent RS14203 1 mg/kg p.o., pre-treatment 250 μg/kg s.c., mean ± SEM
[13] = pre-treatment 250 μg/kg s.c., listed as Clonidine

Compound: CS(=O)(=O)NCCN1C(=O)NC[C@]12CCN1CCc3c(oc4ccccc34)[C@@H]1C2 [MK-467]
Incidence (ferrets [1]; 1 mg/kg p.o.): 0/3 | Retches (ferrets [1]; 1 mg/kg p.o.): 0 n° episodes | Vomits (ferrets [1]; 1 mg/kg p.o.): 0 n° episodes | Incidence (ferrets [1]; 3 mg/kg p.o.): 1/3 | Latency responders only (ferrets [1]; 3 mg/kg p.o.): 12 min | Retches (ferrets [1]; 3 mg/kg p.o.): 4 ± 4 n° episodes | Vomits (ferrets [1]; 3 mg/kg p.o.): 0.3 ± 0.3 n° episodes | Incidence (ferrets [1]; 10 mg/kg po): 2/3 | Latency responders only (ferrets [1]; 10 mg/kg po): 18.5 ± 2.5 min | Retches (ferrets [1]; 10 mg/kg po): 12 ± 6 n° episodes | Vomits (ferrets [1]; 10 mg/kg po): 1.3 ± 0.9 n° episodes | Emesis following administration (in words) (ferrets [1]): Emesis was also recorded

Compound: CN1CC[C@]2(CCN3CCc4c(oc5ccccc45)[C@@H]3C2)N(C)C1=O.Cl [MK-912]
Incidence (ferrets [1]; 1 mg/kg p.o.): 2/8 | Latency responders only (ferrets [1]; 1 mg/kg p.o.): 13.0 ± 5.0 min | Retches (ferrets [1]; 1 mg/kg p.o.): 3.2 ± 2.3 n° episodes | Vomits (ferrets [1]; 1 mg/kg p.o.): 0.4 ± 0.3 n° episodes | Emesis following administration (in words) (ferrets [1]): Emesis was also recorded

Compound: O=[N+]([O-])c1cccc(-c2cc(Cc3ccncc3)cc3cccnc23)c1 [RS14203]
Behavioural effects produced in addition to emesis (ferrets [2]): salivation, hyperventilation, gagging and clawing at the mouth

Latency responders only (ferrets [1]; 3 mg/kg i.p.): 7 ± 1 min | Retches (ferrets [1]; 3 mg/kg i.p.): 18.7 ± 3.8 n° episodes | Vomits (ferrets [1]; 3 mg/kg i.p.): 5.3 ± 1.8 n° episodes | Latency responders only (ferrets [1]; 3 mg/kg p.o.): 30.3 ± 13.4 min | Retches (ferrets [1]; 3 mg/kg p.o.): 9.8 ± 6.2 n° episodes | Vomits (ferrets [1]; 3 mg/kg p.o.): 3.2 ± 1.2 n° episodes | Latency responders only (ferrets [1]; 3 mg/kg s.c.): 9.5 ± 2.5 min | Retches (ferrets [1]; 3 mg/kg s.c.): 29.7 ± 17.6 n° episodes | Vomits (ferrets [1]; 3 mg/kg s.c.): 3.0 ± 1.7 n° episodes
Compound: COC(=O)[C@@H]1[C@H]2C[C@H]3c4[nH]c5ccccc5c4CCN3C[C@@H]2CC[C@@H]1O [Yohimbine, yohimbine]
Adverse effects following parenteral administration (humans): nausea and vomiting | Incidence (ferrets [1]; 3 mg/kg i.p.): 3/3 | Incidence (ferrets [1]; 3 mg/kg p.o.): 3/4 | Incidence (ferrets [1]; 3 mg/kg s.c.): 2/3 | Emesis following administration (in words) (ferrets [1]): induced retching and vomiting in all ferrets treated; also recorded: caused unexpected retching and vomiting

Compound: Clc1cccc(Cl)c1N=C1NCCN1 [clonidine]
Effect on emesis induced by CT-2450 (ferrets [3]; CT-2450 30 mg/kg p.o., pre-treatment 250 μg/kg, all animals treated): abolished emesis | Animals with complete protection against R-rolipram-induced emesis (ferrets [3]; R-rolipram 3 mg/kg p.o., pre-treatment 250 μg/kg): two out of three | Animals showing complete protection against RS14203-induced emesis (ferrets [3]; RS14203 1 mg/kg p.o., pre-treatment 250 μg/kg): five out of six | Effect on number of retches and vomits induced by RS14203 (ferrets [3]; RS14203 1 mg/kg p.o., pre-treatment 62.5-250 μg/kg): dose-dependently decreased | Incidence (ferrets [3]; [5]): 0/5 | Retches (ferrets [3]; [5]): 0* n° episodes | Vomits (ferrets [3]; [5]): 0* n° episodes | Incidence (ferrets [3]; [6]): 1/3 | Latency responders only (ferrets [3]; [6]): 5 min | Retches (ferrets [3]; [7]): 54.3 ± 54.3 n° episodes | Vomits (ferrets [3]; [7]): 5.7 ± 5.7 n° episodes | Incidence (ferrets [3]; emetic agent RS14203 1 mg/kg p.o., pre-treatment 62.5 μg/kg s.c.): 2/3 | Retches (ferrets [3]; [8]): 9.3 ± 7.9 n° episodes | Vomits (ferrets [3]; [8]): 1.7 ± 1.2 n° episodes | Latency responders only (ferrets [3]; [8]): 55.0 ± 49.0 min | Incidence (ferrets [3]; [9]): 1/3 | Latency responders only (ferrets [3]; [9]): 72 min | Retches (ferrets [3]; [10]): 2 ± 2 n° episodes | Vomits (ferrets [3]; [10]): 1 ± 1 n° episodes | Incidence (ferrets [3]; [11]): 1/6 | Latency responders only (ferrets [3]; [11]): 111 min | Retches (ferrets [3]; [12]): 0.2 ± 0.2 n° episodes | Vomits (ferrets [3]; [12]): 0.2 ± 0.2 n° episodes | Effect on RS14203-induced gagging or clawing at the mouth (ferrets [2]): no effect | Clawing at mouth (ferrets [2]; pre-treatment 62.5 μg/kg s.c.): 2/3 | Gagging (ferrets [2]; pre-treatment 62.5 μg/kg s.c.): 1/3 | Hyperventilation (ferrets [2]; pre-treatment 62.5 μg/kg s.c.): 2/3 | Salivation (ferrets [2]; pre-treatment 62.5 μg/kg s.c.): 2/3 | Clawing at mouth (ferrets [2]; pre-treatment 125 μg/kg s.c.): 1/3 | Gagging (ferrets [2]; pre-treatment 125 μg/kg s.c.): 1/3 | Hyperventilation (ferrets [2]; pre-treatment 125 μg/kg s.c.): 2/3 | Salivation (ferrets [2]; pre-treatment 125 μg/kg s.c.): 1/3 | Clawing at mouth (ferrets [2]; pre-treatment 250 μg/kg s.c.): 5/6 | Gagging (ferrets [2]; pre-treatment 250 μg/kg s.c.): 5/6 | Hyperventilation (ferrets [2]; pre-treatment 250 μg/kg s.c.): one out of six | Salivation (ferrets [2]; pre-treatment 250 μg/kg s.c.): none of the animals | Hyperventilation (ferrets [2]; [13]): 1/6 | Salivation (ferrets [2]; [13]): 0/6 | Emesis triggered by the compound by itself (ferrets [4]): did not trigger emesis | Sedation following the administration (ferrets [4]; appeared dose-related): light sedation | Effect on emesis (elderly patients): no effect on emesis | Sedation (elderly patients): induced sedation | Emetic ED50 (dogs): 0.025 mg/kg | Incidence and frequency of vomiting following strabismus surgery (children (3-12 yr)): lower the incidence and frequency of vomiting
